Assay results from ChEMBL document CHEMBL3885861, “Open TG-GATES”.

Species: Rattus norvegicus
Assay: Open TG-GATES - Regimen: Daily Repeat
Type: toxicity, organism-based, Sprague-Dawley
Set-up: regimen Daily Repeat, gender Male, age 6 weeks
Conditions: in vivo, po, route gavage; for TG / TP / gamma-GTP / ALP / ALT / AST / BUN / CRE / Ca / Cl / DBIL / GLC / IP / K / LDH / Na / PL / RALB / TBIL / TC: tissue Plasma; for APTT / Bas / Eos / Fbg / Ht / Lym / MCH / MCHC / MCV / Mono / PT / Plat / RBC / Ret / WBC / Hb / Neu: tissue Blood; for KIDNEY_L / KIDNEY_R / KIDNEY_TOTAL: tissue Kidney; for LIVER: tissue Liver
[1] = 0 mg/kg, […], dose level Control, time 28 day
[2] = 100 mg/kg, 72 h, dose level Low, time 3 day
[3] = 100 mg/kg, […], dose level Low, time 7 day
[4] = 100 mg/kg, […], dose level Low, time 14 day
[5] = 100 mg/kg, […], dose level Low, time 28 day

CCOc1ccc(NC(C)=O)cc1 [PHENACETIN]
TG [1]: 162.4 mg/dL
TP [1]: 6.4 g/dL
gamma-GTP [1]: 1 IU/L
TERMINAL_BW [2]: 232.8 g
APTT [2]: 20.2 s
Bas [2]: 0%
Eos [2]: 1.2%
Fbg [2]: 290.4 mg/dL
Ht [2]: 41.7%
Lym [2]: 76.8%
MCH [2]: 20.4 pg
MCHC [2]: 33%
MCV [2]: 61.8 fL
Mono [2]: 2.6%
PT [2]: 13.4 s
Plat [2]: 116.5 x10_4/uL
RBC [2]: 676.4 x10_4/ul
Ret [2]: 5.2%
WBC [2]: 101.2 x10_2/uL
KIDNEY_L [2]: 1 g
KIDNEY_R [2]: 1 g
KIDNEY_TOTAL [2]: 2.1 g
LIVER [2]: 10.9 g
ALP [2]: 1708.4 IU/L
ALT [2]: 40 IU/L
AST [2]: 70.4 IU/L
BUN [2]: 13 mg/dL
CRE [2]: 0.2 mg/dL
Ca [2]: 11.2 mg/dL
Cl [2]: 105.8 meq/L
DBIL [2]: 0.006 mg/dL
GLC [2]: 172.8 mg/dL
IP [2]: 6.8 mg/dL
K [2]: 4.2 meq/L
LDH [2]: 148 IU/L
Na [2]: 143.4 meq/L
PL [2]: 158.8 mg/dL
RALB [2]: 2.7 g/dL
TBIL [2]: 0.04 mg/dL
TC [2]: 77 mg/dL
TG [2]: 110.6 mg/dL
TP [2]: 5.8 g/dL
gamma-GTP [2]: 1.2 IU/L
TERMINAL_BW [3]: 270.6 g
TERMINAL_BW [4]: 323.2 g
TERMINAL_BW [5]: 411.2 g
APTT [3]: 16.8 s
Bas [3]: 0%
Eos [3]: 1.2%
Fbg [3]: 298.2 mg/dL
Hb [3]: 14.1 g/dL
Ht [3]: 42%
Lym [3]: 78.2%
MCHC [3]: 33.7%
MCV [3]: 60.3 fL
Mono [3]: 2%
Neu [3]: 18%
PT [3]: 13.4 s
Plat [3]: 123.3 x10_4/uL
RBC [3]: 696.4 x10_4/ul
Ret [3]: 5.6%
WBC [3]: 96.3 x10_2/uL
APTT [4]: 17.8 s
Bas [4]: 0.4%
Eos [4]: 0.8%
Fbg [4]: 292.4 mg/dL
Ht [4]: 43.4%
Lym [4]: 79.8%
MCH [4]: 19.9 pg
MCHC [4]: 34%
MCV [4]: 58.5 fL
Mono [4]: 2%
Neu [4]: 16.6%
PT [4]: 13.3 s
Plat [4]: 118.2 x10_4/uL
RBC [4]: 740.8 x10_4/ul
Ret [4]: 4.1%
WBC [4]: 112.5 x10_2/uL
APTT [5]: 18.4 s
Bas [5]: 0%
Eos [5]: 1.6%
Fbg [5]: 278.8 mg/dL
Hb [5]: 15 g/dL
Ht [5]: 43.8%
MCH [5]: 19 pg
MCHC [5]: 34.3%
MCV [5]: 55.3 fL
Mono [5]: 2.4%
Plat [5]: 122.4 x10_4/uL
RBC [5]: 792.8 x10_4/ul
Ret [5]: 3%
WBC [5]: 92.4 x10_2/uL
KIDNEY_L [3]: 1.1 g
KIDNEY_R [3]: 1.1 g
KIDNEY_TOTAL [3]: 2.3 g
KIDNEY_L [4]: 1.2 g
KIDNEY_R [4]: 1.2 g
KIDNEY_TOTAL [4]: 2.5 g
KIDNEY_L [5]: 1.4 g
KIDNEY_R [5]: 1.4 g
KIDNEY_TOTAL [5]: 2.8 g
LIVER [3]: 12.8 g
LIVER [4]: 13.9 g
LIVER [5]: 16.4 g
ALP [3]: 1550.8 IU/L
BUN [3]: 15.4 mg/dL
CRE [3]: 0.2 mg/dL
Ca [3]: 11.2 mg/dL
Cl [3]: 104.8 meq/L
DBIL [3]: 0.006 mg/dL
GLC [3]: 186 mg/dL
IP [3]: 6.9 mg/dL
K [3]: 4.3 meq/L
LDH [3]: 79.4 IU/L
Na [3]: 143.4 meq/L
PL [3]: 165.2 mg/dL
RALB [3]: 2.7 g/dL
TBIL [3]: 0.044 mg/dL
TG [3]: 152 mg/dL
TP [3]: 6 g/dL
gamma-GTP [3]: 1 IU/L
ALP [4]: 1582 IU/L
ALT [4]: 39.4 IU/L
AST [4]: 66.4 IU/L
CRE [4]: 0.2 mg/dL
Ca [4]: 10.9 mg/dL
Cl [4]: 106 meq/L
DBIL [4]: 0.022 mg/dL
GLC [4]: 184.2 mg/dL
IP [4]: 6.7 mg/dL
K [4]: 4.2 meq/L
LDH [4]: 118.6 IU/L
Na [4]: 143.4 meq/L
PL [4]: 162 mg/dL
RALB [4]: 2.7 g/dL
TBIL [4]: 0.062 mg/dL
TC [4]: 73.8 mg/dL
TG [4]: 157 mg/dL
TP [4]: 6 g/dL
gamma-GTP [4]: 1.2 IU/L
ALP [5]: 1231.2 IU/L
ALT [5]: 35.8 IU/L
AST [5]: 60.8 IU/L
BUN [5]: 15.6 mg/dL
CRE [5]: 0.3 mg/dL
Ca [5]: 10.8 mg/dL
Cl [5]: 105.6 meq/L
DBIL [5]: 0.02 mg/dL
GLC [5]: 191.8 mg/dL
IP [5]: 6.1 mg/dL
K [5]: 3.7 meq/L
LDH [5]: 66.6 IU/L
Na [5]: 145.2 meq/L
PL [5]: 148 mg/dL
RALB [5]: 2.9 g/dL
TBIL [5]: 0.052 mg/dL
TC [5]: 63.8 mg/dL
TG [5]: 156 mg/dL
